Measured values published in patent publication EP0597303A2, “Cephalosporin derivatives” (priority 1992, dated 1994).
Counter-ions that a name gives are not always drawn. Like-named read-outs stand apart in the source and are kept apart here.

Tests used:
Assay in all cases: MIC, Agar (Mueller Hinton) Dilution Method
Format in all cases: cell-based
Enter. cloacae 4946 = conditions: Enterobacter cloacae, Gram Negative
From the text: (§1) The in vitro activity of the compounds of formula I of the present invention as measured by the Minimum Inhibitory Concentration (MIC) in micrograms/ml utilizing the Agar (Mueller Hinton) Dilution Method against a variety of Gram-positive and Gram-negative organisms, is set forth in Table 1.

K. oxytoca 1082EN = conditions: Klebsiella oxytoca; K. oxytoca 1082EN; Gram Negative; read-out: MIC
From the text: as §1

Prov. rettgeri ATCC 9250 = conditions: Providencia rettgeri, ATCC9250, Gram Negative
From the text: as §1

Serratia marcescens SM = tested on: Serratia marcescens SM
From the text: as §1

Ser. sp. 101 = tested on: Ser. sp. 101
From the text: as §1

Staph. pyogenes 4 = tested on: Staph. pyogenes 4
From the text: as §1

Ps. aeruginosa 1973 E = conditions: Pseudomonas aeruginosa, Gram Negative
From the text: as §1

E. coli DC-0 = conditions: Escherichia coli, DC0, Gram Negative
From the text: as §1

E. coli 1527E = conditions: Escherichia coli, Gram Negative
From the text: as §1

Staph. aureus Evans = conditions: Staphylococcus aureus
From the text: as §1

Str. pyogenes 503-782 = conditions: Streptococcus pyogenes, 503782
From the text: as §1

Staph. aureus 95 = conditions: Staphylococcus aureus, 95
From the text: as §1

Enter. cloacae 5699 = conditions: Enterobacter cloacae, Gram Negative
From the text: as §1

Ps. aeruginosa B = conditions: Pseudomonas aeruginosa, Gram Negative
From the text: as §1

Micrococcus luteus PCI = conditions: Micrococcus luteus PCI; Gram Positive and Others; read-out: MIC
From the text: as §1

Cit. freundii EL-1408 = conditions: Citrobacter freundii, EL1408
From the text: as §1

Klebsiella pneumoniae A = conditions: Gram Negative
From the text: as §1

E. coli DC-2 = conditions: Escherichia coli, DC2, Gram Negative
From the text: as §1

Ps. aeruginosa 18SH = conditions: Pseudomonas aeruginosa, constitutive ß-lactamase producer, Gram Negative
From the text: as §1

Ps. cepacia 1973 B = conditions: Burkholderia cepacia, Gram Negative
From the text: as §1

E. coli 2008 E = conditions: Escherichia coli
From the text: as §1

K. pneumoniae 369 = conditions: Klebsiella pneumoniae
From the text: as §1

[1] = tested on: Pseudomonas aeruginosa 5712; conditions: Gram Negative
From the text: as §1

E. coli 1894 E = conditions: Escherichia coli; E. coli 1894 E; Gram Negative; read-out: MIC
From the text: as §1

E. coli TEM-1a = conditions: Escherichia coli, TEM1A
From the text: as §1

E. coli Leo HA2 = conditions: Escherichia coli, LEOHA2, Gram Negative
From the text: as §1

E. coli 94 = conditions: Escherichia coli, Gram Negative
From the text: as §1

[2] = tested on: Proteus vulgaris ATCC 6380; conditions: ATCC6380
From the text: as §1

A. calcoaceticus PCI-3 = conditions: Acinetobacter calcoaceticus, PCI3, Gram Negative
From the text: as §1

Ps. aeruginosa K799/61 = conditions: Pseudomonas aeruginosa; Ps. aeruginosa K799/61; Gram Negative; read-out: MIC
From the text: as §1

Candida albicans 155 = conditions: Gram Positive and Others
From the text: as §1

Bacillus megaterium 164 = conditions: Priestia megaterium
From the text: as §1

Enter. cloacae 4192-2 = conditions: Enterobacter cloacae, 41922
From the text: as §1

[3] = tested on: Citrobacter freundii BS-16; conditions: BS16
From the text: as §1

Ent. hirae ATCC 8043 = conditions: Enterococcus hirae, ATCC8043, Gram Positive and Others
From the text: as §1

E. coli 2721B = conditions: Escherichia coli
From the text: as §1

Enterobacter cloacae P99 = tested on: Enterobacter cloacae P99
From the text: as §1

[4] = tested on: Staphylococcus aureus Smith
From the text: as §1

Ps. aeruginosa 56 = conditions: Pseudomonas aeruginosa, Gram Negative
From the text: as §1

Ps. aeruginosa 8780 = conditions: Pseudomonas aeruginosa, Gram Negative
From the text: as §1

| Compound | MIC (Enter. cloacae 4946) | MIC (K. oxytoca 1082EN) | MIC (Prov. rettgeri ATCC 9250) | MIC (Ps. aeruginosa 1973 E) | MIC (E. coli DC-0) | MIC (E. coli 1527E) | MIC (Staph. aureus 95) | MIC (Enter. cloacae 5699) | MIC (Ps. aeruginosa B) | MIC (Micrococcus luteus PCI) | MIC (Klebsiella pneumoniae A) | MIC (E. coli DC-2) | MIC (Ps. aeruginosa 18SH) | MIC (Ps. cepacia 1973 B) | MIC [1] | MIC (E. coli 1894 E) | MIC (E. coli TEM-1a) | MIC (E. coli Leo HA2) | MIC (E. coli 94) | MIC (A. calcoaceticus PCI-3) | also measured |
| --- | --- | --- | --- | --- | --- | --- | --- | --- | --- | --- | --- | --- | --- | --- | --- | --- | --- | --- | --- | --- | --- |
| N#CCC(=O)N[C@@H]1C(=O)N2C(C(=O)O)=C(COC(=O)N[C@H]3CCN(c4c(F)cc5c(=O)c(C(=O)O)cn(C6CC6)c5c4F)C3)CS[C@H]12 [Formula Iba, [6R-[3(S^*), 6 alpha, 7 beta]]-3-[[[[[1-(3-Carboxy-1-cyclopropyl-6,8-difluoro-1,4-dihydro-4-oxo-7-quinolinyl-3-pyrrolidinyl]-amino]carbonyl]oxy]methyl]-7-[(cyanoacetyl)amino]-8-oxo-5-thia 1-azabicyclo[4.2.0]oct-2-ene-2-carboxylic acid monosodium salt] | 0.0313 µg/mL | ≤ 0.0156 µg/mL | 0.0625 µg/mL | 0.25 µg/mL | 0.5 µg/mL | ≤ 0.0156 µg/mL | 0.0313 µg/mL | 0.0625 µg/mL | 0.25 µg/mL | 0.0625 µg/mL | 0.0625 µg/mL | 0.0625 µg/mL | 0.25 µg/mL | 4 µg/mL | 2 µg/mL | ≤ 0.0156 µg/mL | 0.0313 µg/mL | ≤ 0.0156 µg/mL | 0.0313 µg/mL | 0.0625 µg/mL | MIC (Serratia marcescens SM; Serratia marcescens): 0.125 µg/mL; MIC (Ser. sp. 101; Ser. sp. 101, Gram Negative, read-out: MIC): 0.0625 µg/mL; MIC (Staph. pyogenes 4; 4): 0.0313 µg/mL; MIC (Staph. aureus Evans): 0.0313 µg/mL; MIC (Str. pyogenes 503-782): 0.0313 µg/mL; MIC (Cit. freundii EL-1408): 0.125 µg/mL; MIC (E. coli 2008 E; 2008E): 0.0313 µg/mL; MIC (K. pneumoniae 369; 369): 0.125 µg/mL; MIC ([2]; Proteus vulgaris ATCC 6380, constitutive ß-lactamase producer, Gram Negative, read-out: MIC): 0.0625 µg/mL; MIC (Ps. aeruginosa K799/61): 0.0625 µg/mL; MIC (Candida albicans 155): > 128 µg/mL; MIC (Bacillus megaterium 164; 164): 0.0313 µg/mL; MIC (Enter. cloacae 4192-2; Enter. cloacae 4192-2, Gram Negative, read-out: MIC): ≤ 0.0156 µg/mL; MIC ([3]; Citrobacter freundii BS-16, constitutive ß-lactamase producer, Gram Negative, read-out: MIC): ≤ 0.0156 µg/mL; MIC (Ent. hirae ATCC 8043): 0.5 µg/mL; MIC (E. coli 2721B; E. coli 2721B, Gram Negative, read-out: MIC): ≤ 0.0156 µg/mL; MIC (Enterobacter cloacae P99): ≤ 0.0156 µg/mL; MIC ([4]; Staphylococcus aureus Smith, Gram Positive and Others, read-out: MIC): 0.0625 µg/mL; MIC (Ps. aeruginosa 56): 0.25 µg/mL; MIC (Ps. aeruginosa 8780): 0.5 µg/mL |
| N#CCC(=O)N[C@@H]1C(=O)N2C(C(=O)O)=C(COC(=O)N[C@@H]3CCN(c4c(F)cc5c(=O)c(C(=O)O)cn(C6CC6)c5c4F)C3)CS[C@H]12 [Formula Ibb, [6R-[3(R^*), 6 alpha, 7 beta]]-3-[[[[[1-(3-Carboxy-1-cyclopropyl-6,8-difluoro-1,4-dihydro-4-oxo-7-quinolinyl-3-pyrrolidinyi]amino]carbonyl]oxy]methyL]-7-[(cyanoacetyl)amino]-8-oxo-5-thia-1-azabicyclo[4.2.0]oct-2-ene-2-carboxylic acid monosodium salt] | 0.125 µg/mL | 0.0625 µg/mL | 0.25 µg/mL | 1 µg/mL | 2 µg/mL | 0.0625 µg/mL | 0.125 µg/mL | 0.25 µg/mL | 1 µg/mL | 0.0625 µg/mL | 0.25 µg/mL | 0.25 µg/mL | 1 µg/mL | 4 µg/mL | 4 µg/mL | 0.0625 µg/mL | 0.125 µg/mL | ≤ 0.0156 µg/mL | 0.125 µg/mL | 0.5 µg/mL | MIC (Serratia marcescens SM; Serratia marcescens SM, constitutive ß-lactamase producer, Gram Negative, read-out: MIC): 0.25 µg/mL; MIC (Ser. sp. 101): 0.125 µg/mL; MIC (Staph. pyogenes 4; Staph. pyogenes 4, Gram Positive and Others, read-out: MIC): 0.0625 µg/mL; MIC (Staph. aureus Evans; Staph. aureus Evans, Gram Positive and Others, read-out: MIC): 0.0625 µg/mL; MIC (Str. pyogenes 503-782; Str. pyogenes 503-782, Gram Positive and Others, read-out: MIC): 0.0625 µg/mL; MIC (Cit. freundii EL-1408; Cit. freundii EL-1408, Gram Negative, read-out: MIC): 0.5 µg/mL; MIC (E. coli 2008 E; E. coli 2008 E, Gram Negative, read-out: MIC): 0.0625 µg/mL; MIC (K. pneumoniae 369; K. pneumoniae 369, Gram Negative, read-out: MIC): 0.5 µg/mL; MIC ([2]; Proteus vulgaris): 0.125 µg/mL; MIC (Ps. aeruginosa K799/61): 0.25 µg/mL; MIC (Candida albicans 155): > 128 µg/mL; MIC (Bacillus megaterium 164; Bacillus megaterium 164, Gram Positive and Others, read-out: MIC): 0.0625 µg/mL; MIC (Enter. cloacae 4192-2): 0.0313 µg/mL; MIC ([3]; Citrobacter freundii): 0.0313 µg/mL; MIC (Ent. hirae ATCC 8043): 1 µg/mL; MIC (E. coli 2721B; 2721B): 0.0313 µg/mL; MIC (Enterobacter cloacae P99): ≤ 0.0156 µg/mL; MIC ([4]; Staphylococcus aureus): 0.125 µg/mL; MIC (Ps. aeruginosa 56): 1 µg/mL; MIC (Ps. aeruginosa 8780): 2 µg/mL |
